Results as given in patent EP0908457B1, “3-(1,2-benzisothiazol- and isoxazol-5-Y1)-2,4(1H,3H)-pyrimidinedione or thione and 3-(1,2-benzisothiazol- and isoxazol-5-y1)-4(3H)-pyrimidinone or thione herbicidal agents” (BASF AKTIENGESELLSCHAFT, priority 1997, dated 1999).

Columns and labels:
[1] = system: Echinochloa oryzoides (Ard.) Fritsch.; test: Preemergence weed control under flooded paddy conditions, ECHORC (Watergrass (Calif.)); format: in vivo; details: preemergence, flooded paddy, rated three to four weeks after treatment
Cyperus iria = test: Preemergence weed control under flooded paddy conditions, CYPIR (Rice Flatsedge); format: in vivo; details: preemergence, flooded paddy, rated three to four weeks after treatment
[2] = system: Cyperus serotinus, Rottb.; test: Preemergence weed control under flooded paddy conditions, CYPSE (Flatsedge); format: in vivo; details: preemergence, rated three to four weeks after treatment
[3] = system: Monochoria vaginalis, Presl.; test: Preemergence weed control under flooded paddy conditions, MOOVA (Monochoria); format: in vivo; details: preemergence, flooded paddy, rated three to four weeks after treatment
Sagittaria pygmaea, L. = test: Preemergence weed control under flooded paddy conditions, SAGPY (Arrowhead (Pygmaea)); format: in vivo; details: preemergence, flooded paddy, rated three to four weeks after treatment
[4] = system: Oryza sativa, (L.) Tebonnet; test: Rice tolerance to post-transplant applications under flooded paddy conditions (Example 187), ORYSAT (Rice, Tebonnet); details: rated three to four weeks after treatment
Also: meaning of each grade not given here.

| Structure (SMILES) | herbicidal effect rating, ECHORC ([1]; Rate 0.0320 kg/ha) | herbicidal effect rating, ECHORC ([1]; Rate 0.0620 kg/ha) | herbicidal effect rating, ECHORC ([1]; Rate 0.1250 kg/ha) | herbicidal effect rating, ECHORC ([1]; Rate 0.2500 kg/ha) | herbicidal effect rating, CYPIR (Cyperus iria; Rate 0.0320 kg/ha) | herbicidal effect rating, CYPIR (Cyperus iria; Rate 0.0620 kg/ha) | herbicidal effect rating, CYPIR (Cyperus iria; Rate 0.1250 kg/ha) | herbicidal effect rating, CYPIR (Cyperus iria; Rate 0.2500 kg/ha) | herbicidal effect rating, CYPSE ([2]; Rate 0.0320 kg/ha) | herbicidal effect rating, CYPSE ([2]; Rate 0.1250 kg/ha) | herbicidal effect rating, MOOVA ([3]; Rate 0.0620 kg/ha) | herbicidal effect rating, MOOVA ([3]; Rate 0.1250 kg/ha) | herbicidal effect rating, MOOVA ([3]; Rate 0.2500 kg/ha) | herbicidal effect rating, SAGPY (Sagittaria pygmaea, L.; Rate 0.0320 kg/ha) | herbicidal effect rating, SAGPY (Sagittaria pygmaea, L.; Rate 0.0620 kg/ha) | herbicidal effect rating, SAGPY (Sagittaria pygmaea, L.; Rate 0.1250 kg/ha) | herbicidal effect rating ORYSAT ([4]; Rate 0.0320 kg/ha) | herbicidal effect rating ORYSAT ([4]; Rate 0.0620 kg/ha) | herbicidal effect rating ORYSAT ([4]; Rate 0.1250 kg/ha) | herbicidal effect rating ORYSAT ([4]; Rate 0.2500 kg/ha) | further results |
| --- | --- | --- | --- | --- | --- | --- | --- | --- | --- | --- | --- | --- | --- | --- | --- | --- | --- | --- | --- | --- | --- |
| Cc1cccc(COCc2nsc3ccc(-n4c(=O)cc(C(F)(F)F)n(C)c4=O)cc23)c1 [Example 587, 2,4(1H,3H)-Pyrimidinedione, 1-methyl-3-{3-{[(m-methylbenzyl)oxy]methyl}-1,2-benzisothiazol-5-yl}-6-(trifluoromethyl)-] | 7.0 | 7.0 | 9.0 | 9.0 | 4.0 | 8.0 | 9.0 | 9.0 | 0.0 | 0.0 | 5.0 | 9.0 | 9.0 | 0.0 | 2.0 | 5.0 | 4.0 | 4.0 | 4.0 | 5.0 | herbicidal effect rating, MOOVA ([3]; Rate 0.0320 kg/ha): 5.0; herbicidal effect rating, SAGPY (Sagittaria pygmaea, L.; Rate 0.2500 kg/ha): 5.0 |
| Cn1c(C(F)(F)F)cc(=O)n(-c2ccc3snc(COCc4cccc([N+](=O)[O-])c4)c3c2)c1=O [Example 588, 2,4(1H,3H)-Pyrimidinedione, 1-methyl-3-{3-{[(m-nitrobenzyl)oxy]methyl}-1,2-benzisothiazol-5-yl}-6-(trifluoromethyl)-] | 4.0 | 7.0 | 9.0 | 7.0 | 0.0 | 2.0 | 6.0 | 6.0 | 0.0 | 5.0 | – | 7.0 | 8.0 | 0.0 | 0.0 | 0.0 | 0.0 | 3.0 | 3.0 | 3.0 | herbicidal effect rating, CYPSE ([2]; Rate 0.0620 kg/ha): 0.0; herbicidal effect rating, CYPSE ([2]; Rate 0.2500 kg/ha): 5.0; herbicidal effect rating, SAGPY (Sagittaria pygmaea, L.; Rate 0.2500 kg/ha): 0.0 |
| Cn1c(C(F)(F)F)cc(=O)n(-c2ccc3snc(COCc4ccc([N+](=O)[O-])cc4)c3c2)c1=O [Example 589, 2,4(1H,3H)-Pyrimidinedione, 1-methyl-3-{3-{[(p-nitrobenzyl)oxy]methyl}-1,2-benzisothiazol-5-yl}-6-(trifluoromethyl)-] | 4.0 | 4.0 | 4.0 | 4.0 | 0.0 | 2.0 | 3.0 | 4.0 | 0.0 | 0.0 | 8.0 | 8.0 | 9.0 | 0.0 | 2.0 | 2.0 | 0.0 | 0.0 | 0.0 | 0.0 | herbicidal effect rating, CYPSE ([2]; Rate 0.0620 kg/ha): 0.0; herbicidal effect rating, MOOVA ([3]; Rate 0.0320 kg/ha): 7.0; herbicidal effect rating, SAGPY (Sagittaria pygmaea, L.; Rate 0.2500 kg/ha): 3.0 |
| CC(c1nsc2ccc(-n3c(=O)cc(C(F)(F)F)n(C)c3=O)cc12)S(C)(=O)=O (stereo not shown) [Example 590, 2,4(1H,3H)-Pyrimidinedione, 1-methyl-3-{3-[1-(methylsulfonyl)ethyl}-1,2-benzisothiazol-5-yl}-6-(trifluoromethyl)-] | 3.0 | 5.0 | 6.0 | 9.0 | 2.0 | 7.0 | 7.0 | 9.0 | 0.0 | – | 7.0 | 7.0 | 9.0 | 3.0 | 4.0 | 8.0 | 3.0 | 5.0 | 5.0 | 6.0 | herbicidal effect rating, CYPSE ([2]; Rate 0.2500 kg/ha): 5.0; herbicidal effect rating, SAGPY (Sagittaria pygmaea, L.; Rate 0.2500 kg/ha): 9.0 |
| CC(C)C=C(C#N)c1nsc2ccc(-n3c(=O)cc(C(F)(F)F)n(C)c3=O)cc12 [Example 591, 1,2-Benzisothiazole-3-acetonitrile, 5-[3,6-dihydro-3-methyl-2,6-dioxo-4-(trifluoromethyl)-1(2H)-pyrimidinyl]-alpha-(2-methylpropylidene)-] | 3.0 | 3.0 | 7.0 | 9.0 | 3.0 | 4.0 | 7.0 | 7.0 | 0.0 | 0.0 | 9.0 | 9.0 | 9.0 | 0.0 | 3.0 | 7.0 | 2.0 | 4.0 | 4.0 | 5.0 | herbicidal effect rating, MOOVA ([3]; Rate 0.0320 kg/ha): 7.0; herbicidal effect rating, SAGPY (Sagittaria pygmaea, L.; Rate 0.2500 kg/ha): 7.0 |
| Cn1c(C(F)(F)F)cc(=O)n(-c2ccc3snc(C(C#N)=Cc4ccccn4)c3c2)c1=O [Example 592, 1,2-Benzisothiazole-3-acetonitrile, 5-[3,6-dihydro-3-methyl-2,6-dioxo-4-(trifluoromethyl)-1(2H)-pyrimidinyl]-alpha-(2-pyridylmethylene)-] | 0.0 | 3.0 | 4.0 | 5.0 | 2.0 | 3.0 | 4.0 | 6.0 | 0.0 | 0.0 | 9.0 | 9.0 | 9.0 | 0.0 | 3.0 | 3.0 | 2.0 | 2.0 | 4.0 | 4.0 | herbicidal effect rating, MOOVA ([3]; Rate 0.0320 kg/ha): 8.0 |
| Cn1c(C(F)(F)F)cc(=O)n(-c2ccc3snc(C(C#N)=Cc4ccoc4)c3c2)c1=O [Example 593, 1,2-Benzisothiazole-3-acetonitrile, 5-[3,6-dihydro-3-methyl-2,6-dioxo-4-(trifluoromethyl)-1(2H)-pyrimidinyl]-alpha-(3-furylmethylene)-] | 0.0 | 0.0 | 0.0 | 0.0 | 3.0 | 3.0 | 4.0 | 5.0 | – | 0.0 | 7.0 | 7.0 | 7.0 | 0.0 | 0.0 | 0.0 | 0.0 | 0.0 | 0.0 | 0.0 | herbicidal effect rating, CYPSE ([2]; Rate 0.2500 kg/ha): 0.0; herbicidal effect rating, SAGPY (Sagittaria pygmaea, L.; Rate 0.2500 kg/ha): 0.0 |
| Cn1c(C(F)(F)F)cc(=O)n(-c2ccc3snc(C(C#N)=Cc4ccco4)c3c2)c1=O [Example 594, 1,2-Benzisothiazole-3-acetonitrile, 5-[3,6-dihydro-3-methyl-2,6-dioxo-4-(trifluoromethyl)-1(2H)-pyrimidinyl]-alpha-furfurylidene-] | 3.0 | 5.0 | 6.0 | 7.0 | 3.0 | 5.0 | 5.0 | 9.0 | 0.0 | – | 7.0 | 9.0 | 9.0 | 2.0 | 4.0 | 5.0 | 1.0 | 2.0 | 2.0 | 3.0 | herbicidal effect rating, MOOVA ([3]; Rate 0.0320 kg/ha): 6.0 |
